Experimental data: patent publication US7220744B2, “Monocyclic substituted phenyl methanones” (Hoffman-La Roche Inc., priority 2005, dated 2007)

target: T1, mGlyT-1b (Mus musculus, UniProt P28571); assay: Glycine Uptake Inhibition Assay (mGlyT-1b); assay type: cell-based; settings: inhibition of [3H]-glycine uptake in Flp-in-CHO cells transfected with mGlyT-1b cDNA; 20 min preincubation at 22° C.; read-out: IC50 (μM) at GlyT-1
T1 construct: host or cells: Flp-in-CHO cells (vendor and catalogue number are those of the host cell line)
T1 sequence (P28571 1-651 isoform P28571-2): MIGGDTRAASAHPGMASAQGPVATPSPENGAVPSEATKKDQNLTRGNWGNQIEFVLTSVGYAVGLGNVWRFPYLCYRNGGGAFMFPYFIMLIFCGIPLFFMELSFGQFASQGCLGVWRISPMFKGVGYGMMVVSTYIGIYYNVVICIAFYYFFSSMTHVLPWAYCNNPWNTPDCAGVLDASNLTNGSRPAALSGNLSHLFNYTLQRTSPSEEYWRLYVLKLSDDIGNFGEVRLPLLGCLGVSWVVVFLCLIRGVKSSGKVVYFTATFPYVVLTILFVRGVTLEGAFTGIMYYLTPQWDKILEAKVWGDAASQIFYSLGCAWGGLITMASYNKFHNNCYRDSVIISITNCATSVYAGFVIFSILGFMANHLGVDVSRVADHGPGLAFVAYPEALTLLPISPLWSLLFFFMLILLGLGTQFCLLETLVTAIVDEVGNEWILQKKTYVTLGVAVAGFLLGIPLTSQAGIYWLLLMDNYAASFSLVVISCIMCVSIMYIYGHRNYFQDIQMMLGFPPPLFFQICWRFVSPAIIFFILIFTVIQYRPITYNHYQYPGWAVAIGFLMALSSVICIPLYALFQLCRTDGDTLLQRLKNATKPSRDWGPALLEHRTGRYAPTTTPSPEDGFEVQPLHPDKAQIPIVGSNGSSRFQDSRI
Experimental: DMEM complete medium: Nutrient mixture F-12 (Gibco Life-technologies), fetal bovine serum (FBS) 5%, (Gibco life technologies), Penicillin/Streptomycin 1% (Gibco life technologies), Hygromycin 0.6 mg/ml (Gibco life technologies), Glutamine 1 mM Gibco life technologies)
Uptake buffer (UB): 150 mM NaCl, 10 mM Hepes-Tris, pH 7.4, 1 mM CaCl2, 2.5 mM KCl, 2.5 mM MgSO4, 10 mM (+) D-glucose.
Flp-in™-CHO (Invitrogen Cat n° R758-07) cells stably transfected with mGlyT1b cDNA.
Glycine Uptake Inhibition Assay (mGlyT-1b)
On day 1 mammalian cells, (Flp-in™-CHO), transfected with mGlyT-1b cDNA, were plated at the density of 40,000 cells/well in complete F-12 medium, without hygromycin in 96-well culture plates. On day 2, the medium was aspirated and the cells were washed twice with uptake buffer (UB). The cells were then incubated for 20 min at 22° C. with either (i) no potential competitor, (ii) 10 mM non-radioactive glycine, (iii) a concentration of a potential inhibitor. A range of concentrations of the potential inhibitor was used to generate data for calculating the concentration of inhibitor resulting in 50% of the effect (e.g. IC50, the concentration of the competitor inhibiting glycine uptake of 50%). A solution was then immediately added containing [^3H]-glycine 60 nM (11–16 Ci/mmol) and 25 μM non-radioactive glycine. The plates were incubated with gentle shaking and the reaction was stopped by aspiration of the mixture and washing (three times) with ice-cold UB. The cells were lysed with scintillation liquid, shaken 3 hours and the radioactivity in the cells was counted using a scintillation counter.

Row | SMILES | IC50
1 | Cc1nc(N2CCN(C(=O)c3cc(S(C)(=O)=O)ccc3O[C@H](C)C(F)(F)F)CC2)sc1C(F)(F)F [Example 81, [5-Methanesulfonyl-2-((R)-2,2,2-trifluoro-1-methyl-ethoxy)-phenyl]-[4-(4-methyl-5-trifluoromethyl-thiazol-2-yl)-piperazin-1-yl]-methanone] | 0.044 µM
2 | CC(C)Sc1ccc(S(C)(=O)=O)cc1C(=O)N1CCN(c2ncc(C(F)(F)F)s2)CC1 [Example 84, (2-Isopropylsulfanyl-5-methanesulfonyl-phenyl)-[4-(5-trifluoromethyl-thiazol-2-yl)-piperazin-1-yl]-methanone] | 0.076 µM
3 | C[C@H](Oc1ccc(S(C)(=O)=O)cc1C(=O)N1CCN(c2nnc(C(F)(F)F)s2)CC1)C(F)(F)F [Example 93, [5-Methanesulfonyl-2-((S)-2,2,2-trifluoro-1-methyl-ethoxy)-phenyl]-[4-(5-trifluoromethyl-[1,3,4]thiadiazol-2-yl)-piperazin-1-yl]-methanone] | 0.075 µM
4 | CNS(=O)(=O)c1ccc(OC2CCCC2)c(C(=O)N2CCN(c3nc(-c4ccccc4)ns3)CC2)c1 [Example 100, 4-Cyclopentyloxy-N-methyl-3-[4-(3-phenyl-[1,2,4]thiadiazol-5-yl)-piperazine-1-carbonyl]-benzenesulfonamide] | 0.055 µM
5 | CNS(=O)(=O)c1ccc(OC2CCCC2)c(C(=O)N2CCN(c3nnc(C(F)(F)F)s3)CC2)c1 [Example 101, 4-Cyclopentyloxy-N-methyl-3-[4-(5-trifluoromethyl-[1,3,4]thiadiazol-2-yl)-piperazine-1-carbonyl]-benzenesulfonamide] | 0.026 µM

The next compounds have a lower IC50 than those just listed; values first:

Row | IC50 | SMILES
6 | 0.021 µM | CNS(=O)(=O)c1ccc(OC2CCCC2)c(C(=O)N2CCN(c3ncc(C#N)s3)CC2)c1 [Example 99, 3-[4-(5-Cyano-thiazol-2-yl)-piperazine-1-carbonyl]-4-cyclopentyloxy-N-methyl-benzenesulfonamide]
7 | 0.006 µM | CS(=O)(=O)c1ccc(OCC(F)(F)C(F)(F)F)c(C(=O)N2CCN(c3ncc(C(F)(F)F)s3)CC2)c1 [Example 103, [5-Methanesulfonyl-2-(2,2,3,3,3-pentafluoro-propoxy)-phenyl]-[4-(5-trifluoromethyl-thiazol-2-yl)-piperazin-1-yl]-methanone]
